# Laboratory results from US9815878B2, “Use of PEDF-derived polypeptides for preventing and/or ameliorating skin aging” (MacKay Memorial Hospital, priority 2012, dated 2017).
# How the values were obtained:
# [1] = tested on: primary mouse dermal fibroblasts; assay: Dermal fibroblast proliferation in vitro, BrdU labeling assay; type: cell-based, C57BL/6 mouse; conditions: 24 hours; for BrdU/Vimentin Labeling Index (%): 50 nM peptide in 1% FBS medium, BrdU 2 hours
# Procedure: (§1) Full-thickness skin tissue was obtained from the dorsum of C57BL/6 mouse. The subcutaneous tissue was carefully dissected from the skin and washed three times in sterile phosphate-buffered saline (PBS). The tissue was then cut into small pieces (1-2 mm^3). After being digested with 0.1% dispase at 4° C. overnight, the epidermal layers were removed, and the remaining dermal parts were further digested with 0.1% collagenase I at 37° C. for another 4 hours. The digested cells were then collected by centrifugation (400 g for 5 minutes) and resuspended in high-glucose DMEM supplemented with 10% FBS, 2 mM L-glutamine, and 1% penicillin-streptomycin antibiotic mixture. Cells were seeded onto tissue-culture plates (Falcon Labware; NJ, USA) at 1×10^3 cells/cm^2 and maintained at 37° C. with 5% CO2. After 24 hours, the medium was discarded to remove residual non-adherent cells, and cell culture was replenished with a fresh medium. For passage, near-confluent cells were harvested with 0.25% trypsin/EDTA.
# After fixing with 4% paraformaldehyde, cells were exposed to cold methanol for 2 minutes, and then treated with 1 N HCl at room temperature for 1 hour before performing immunofluorescence staining.
# (§2) BrdU-labeled DNA was detected by polyclonal anti-BrdU antibody and rhodamine-conjugated donkey anti-rabbit IgG. Nuclei were counterstained with Hoechst 33258 (blue).
# Primary mouse dermal fibroblasts were isolated and cultured as described in the “Materials and Methods” section. The dermal fibroblast at passage 2 were seeded at gelatin-coated slide in a 6-well plate at a density of 2×10^5 cells per well and cultured in growth medium (DMEM 10% FBS) for 24 hours before being replaced by a basal growth medium with 1% FBS only (control group) or with 1% FBS plus an additional 50 nM of PEDF-derived peptide (i.e., 29-mer, 24-mer, 20-mer, 18-mer, Mo 29-mer, or Mo 20-mer) for 24 hours. For BrdU labeling assay, BrdU (final concentration, 10 μM) was added to the culture for 2 hours. The level of BrdU- and vimentin-double positive cells was expressed as the percentage of BrdU- and vimentin-double positive cells per total vimentin-positive cells (the BrdU/Vimentin Labeling Index), and the results were summarized in Table 2.
# [2] = tested on: dermal fibroblasts; assay: Dermal fibroblast proliferation in photo damaged (UVB irradiated) skin in vivo, BrdU/vimentin staining; design: species or system nude mice (BALB/cAnN.Cg-Foxn1nu/CrlNarl); conditions: for BrdU/Vimentin Labeling Index (%): after 8-week UVB, ointment plus microneedle twice a week for 2 weeks
# Procedure: For animal study, BrdU was reconstituted in DMSO as stock (80 mM). 10 μl of BrdU stock mixed with 90 μl of PBS was intraperitoneally injected into mouse at 16 hours prior to euthanasia. Formalin-fixed, paraffin-embedded skin specimens were deparaffinized in xylene and rehydrated in a graded series of ethanol. The specimens were then exposed to 1 N HCl at room temperature for 1 hour for subsequent immunofluorescence study.
# as §2
# Six-week-old female nude mice (BALB/cAnN.Cg-Foxn1nu/CrlNarl) were irradiated with ultraviolet B (UVB) on the back 5 times a week for an eight-week period using a bank of five UVB lamps (model XL-1000B, Spectrolinker™ apparatus; emission peak: 312 nm), placed about 20 cm above the backs of the animals. During the UVB exposure, the mice were allowed to move freely within the cage. The irradiation intensity represented as the minimal erythe al dose (MED) was set at 1 MED during the first 2 weeks (60 mJ/cm^2), and was progressively elevated to 2 MED (120 mJ/cm^2) in the 3rd-4th week, to 3 MED (180 mJ/cm^2) in the 5th-6th week, and to 4 MED (240 mJ/cm^2) during the 7th-8th weeks of the experiment. After the 8-week UVB exposure, animals developed noticeable wrinkles and were subsequently randomly divided into the following 4 groups, with 3 mice in each group. In the UVB/vehicle, UVB/29-mer, UVB/20-mer, and UVB/18-mer groups, 350 μl of ointment (containing DMSO, 29-mer, 20-mer or 18-mer PEDF) was applied to the dorsal skin and then transdermal delivery was achieved by punching the ointment treated skin with the microneedle patch. Also, mice that were not subjected to UVB radiation were used as control (Normal). The ointment/microneedle treatment was given twice a week for 2 weeks. Mice were intraperitoneally given BrdU and euthanized at 16 hours after the last treatment. Skin sections were stained for vimentin and BrdU. The level of BrdU- and vimentin-double positive cells was expressed as the percentage of BrdU- and vimentin-double positive cells per total vimentin-positive cells (the BrdU/Vimentin Labeling Index).
# [3] = tested on: MMP-13; assay: UVB-induced MMP-13 mRNA expression in primary mouse dermal fibroblasts, RT-PCR; type: cell-based; conditions: for MMP-13 Expression Level (%): mRNA, Vehicle/UVB set to 100%; for effect on UVB-induced upregulation of MMP-13: cells pretreated with peptide
# Procedure: as §1
# The total RNA was extracted from cells using the TRIzol (Invitrogen) and treated with RNase-free DNase I (Qiagen, Santa Clarita, Calif.) to remove genomic DNA and then purified with an RNA purification kit (Dynabeads; Invitrogen). 1 μg of total RNA retrieved from primary dermal fibroblast was reverse-transcribed into cDNA by 200 units of expand Reverse-Transcriptase (Roche, Mannheim, Germany) in 20 μl of reaction buffer containing 0.25 μg of random primers and 0.8 mM dNTPs at 42° C. for 1 hour. 2 μl of the cDNA was used for the PCR reaction as templates. PCR was performed in a 30 μl volume containing 15 μl of EconoTaq® PLUS GREEN 2× Master Mix (Lucigen® Corp.), 1 μM of each primer and 2 μl of template DNA. cDNA was synthesized in an 18-22 cycle amplification reaction (denaturation, 20 s, 94° C.; annealing, 30 s, 57° C.; and polymerization, 40 s, 72° C.). The number of cycles for the primer set was chosen to be in the linear range of amplification. The sequences of specific PCR primers were mouse MMP-13 (accession number: NM_008607) sense, […] (SEQ ID NO: 12); antisense, […] (SEQ ID NO: 13); PCR product: 201 bp; and mouse glyceraldehyde 3-phosphate dehydrogenase (GAPDH; accession number: M32599) sense, […] (SEQ ID NO: 14); and anti-sense, […] (SEQ ID NO: 15); PCR product: 223 bp.). The PCR products were electrophoresed in a 2% agarose gel containing ethidium bromide and visualized by UV illumination. The intensities of the PCR products were quantified densitometrically using a FUJI LAS-3000 system and Multi Gauge Ver. 1.01 software (Fujifilm, Tokyo, Japan).
# Primary mouse dermal fibroblasts in passage 2 of monolayer cultures were incubated with 1% FBS-DMEM supplemented with or without 100 nM PEDF peptide for 24 hours, and then subjected to UVB irradiation as described above. After UVB irradiation, PBS was replaced with 1% FBS-DMEM with or without PEDF peptide for further 24 hours, and then cellular total RNAs were extracted for subsequent RT-PCR analysis. The expression level of MMP-13 mRNA was normalized with the expression level in the Vehicle/UVB group (set to 100%), and quantitative results are summarized in Table 7.
# [4] = after UVB exposure, transdermal delivery
# [5] = 100 nM peptide 24 h before and 24 h after UVB 15 mJ/cm^2
Substance,BrdU/Vimentin Labeling Index (%) [1] [%],proliferation relative to control medium ([1]; 50 nM peptide),BrdU/Vimentin Labeling Index (%) [2] [%],"proliferative activity of dermal fibroblasts relative to UVB/vehicle group [2, 4]","MMP-13 Expression Level (%) [3, 5] [%]","MMP-13 Expression Level (%) ([3]; 100 nM peptide, no UVB irradiation)",effect on UVB-induced upregulation of MMP-13 [3],effect on dermal fibroblast proliferation in vitro ([1]; 50 nM peptide),"effect on dermal fibroblast proliferation in UVB-damaged skin [2, 4]"
Ac-SLGAEQRTESIIHRALYYDLISSPDIHGT-NH2 [29-mer],9.6 ± 1.6,about 5 fold,5.2 ± 1.9,about 2.5 fold,15.8 ± 1.8,4.8 ± 0.63,substantially reduced,,
EQRTESIIHRALYYDLIS [18-mer],2.1 ± 0.61,,2.0 ± 0.8,,103.3 ± 7.8,,unable to reduce the UVB-induced upregulation,failed to elicit such effect,failed to promote the dermal fibroblast proliferation
"SLGAEQRTESIIHRALYYDL [20-mer, synthetic peptide corresponding to residues 93-112 of human PEDF]",10.4 ± 2.3,about 5 fold,5.9 ± 1.3,about 2.5 fold,15.8 ± 3.3,,substantially reduced,,
